# Results published in US11940441B2, “Low shear microfluidic devices and methods of use and manufacturing thereof” (President and Fellows of Harvard College, priority 2013, dated 2024).
# Assays:
# Type in all cases: cell-based, human
# [1] = test system: neutrophil adhesion to activated endothelium; test: Neutrophil capture and adhesion in COPD epithelium-microvascular endothelium co-culture device after poly (I:C); details: budesonide 10 nM or PFI-2 500 nM; poly (I:C) 10 μg/ml for 6 h; compared with no treatment
# Excerpt: FIGS. 28A-28C show capability of determining drug efficacy on neutrophil capture and adhesion and inflammation suppression in a small airway mimicking device according to one or more embodiments described herein. (FIG. 28A) Representative immunofluorescence images showing adhesion of recruited neutrophils under three different conditions: (left) no drug; (middle) budesonide; (right) PFI-2. Neutrophils were stained with Hoechst immediately prior to experiment to allow visualization and quantification. (FIG. 28B) Bar graph showing percentage change in neutrophil adhesion to activated endothelium as imaged in FIG. 28A. (n=3 different donors per condition; 7-8 devices per condition from 4 independent experiments; 4-5 distinct fields per chip). […] Cytokines measured include: neutrophil-attractant IL-8, GROα, and GM-CSF, monocyte-chemoattractant MCP-1, and acute inflammation associated cytokine IL-6. […]
# COPD epithelium-microvascular endothelium co-culture devices were established, e.g., as described in Example 1 or 2, and then were either treated with the corticosteroid drug budesonide (10 nM) or PFI-2 (a bromodomain-containing protein 4 (BRD4) inhibitor drug; 500 nM), or left untreated. […] Neutrophils were stained with Hoechst immediately prior to experiment to allow visualization and quantification. […]
# Effects of budesonide and PFI-2 on neutrophil adhesion were quantified.
# [2] = test system: COPD epithelium-microvascular endothelium co-culture; test: Inflammatory cytokine secretion from the microvascular channel of COPD co-culture devices (Multiplex Cytokine Detection System); details: budesonide 10 nM or PFI-2 500 nM, poly (I:C) 10 μg/ml 6 h
# Excerpt: FIGS. 28A-28C show capability of determining drug efficacy on neutrophil capture and adhesion and inflammation suppression in a small airway mimicking device according to one or more embodiments described herein. (FIG. 28A) Representative immunofluorescence images showing adhesion of recruited neutrophils under three different conditions: (left) no drug; (middle) budesonide; (right) PFI-2. Neutrophils were stained with Hoechst immediately prior to experiment to allow visualization and quantification. (FIG. 28B) Bar graph showing percentage change in neutrophil adhesion to activated endothelium as imaged in FIG. 28A. (n=3 different donors per condition; 7-8 devices per condition from 4 independent experiments; 4-5 distinct fields per chip). (FIG. 28C) A set of bar graphs showing levels of different cytokine secretion modulated by the indicated drug or under no treatment. Cytokines measured include: neutrophil-attractant IL-8, GROα, and GM-CSF, monocyte-chemoattractant MCP-1, and acute inflammation associated cytokine IL-6. (n=3 donors per condition).
# COPD epithelium-microvascular endothelium co-culture devices were established, e.g., as described in Example 1 or 2, and then were either treated with the corticosteroid drug budesonide (10 nM) or PFI-2 (a bromodomain-containing protein 4 (BRD4) inhibitor drug; 500 nM), or left untreated. The COPD epithelium was then stimulated with poly (I:C) 10 μg/ml via the “airway lumen” channel for 6 h and then examined for adhesion of recruited neutrophils. Neutrophils were stained with Hoechst immediately prior to experiment to allow visualization and quantification. Representative immunofluorescence images of the three conditions are illustrated in FIG. 28A.
# To compare the ability of budesonide and PFI-2 in suppressing inflammatory cytokine secretion, secreted cytokines from the “microvascular” channel of the co-culture devices were also analyzed by Multiplex Cytokine Detection System prior to neutrophil recruitment assay.
# [3] = test system: differentiated airway cells; test: IL-13 induced asthma-like phenotype in the airway-on-a-chip
# Excerpt: FIGS. 30A-30D show induction of asthma-like phenotype in the airway-on-a-chip for assessment of drug efficacy. […] FIG. 30B is a bar graph showing quantification of globet cell coverage based on the fluorescent images (representative images shown in FIG. 30A). FIG. 30C is a set of bar graphs showing secretion of G-CSF and GM-CSF by IL-13 stimulated cells, as compared to cells without IL-13 stimulation. FIG. 30D is a bar graph showing cilia beating frequency under indicated conditions. In FIGS. 30B-30D, the “airway” devices were also used to assess the drug efficacy of Tofacitinib, a JAK inhibitor, by treating the IL-13 stimulated cells with Tofacitinib, and measuring each phenotype as described above accordingly.
# To develop asthma-like phenotype in the devices described herein, airway cells were differentiated in the devices, e.g., using the methods as described in Example 1 or 2, and then stimulated with IL-13 to induce asthma-like phenotype in the devices. IL-13 is a protein secreted by immune cells which is found in high quantities in lungs of asthmatics.
# The “airway” devices were then used to assess the drug efficacy of Tofacitinib, a JAK inhibitor.
# [4] = test system: COPD and healthy differentiated epithelial cells; test: Cytokine response of differentiated COPD and healthy epithelia to TLR stimulation in the device; details: for IL8 secretion: LPS stimulation; for M-CSF secretion: poly(I:C) stimulation
# Excerpt: FIGS. 26A-26E are data graphs showing COPD disease phenotype can be established in the device according to one or more embodiments described herein. […] FIG. 26B compares IL-8 secretion between COPD and healthy epithelia after LPS (lipopolysaccharides) stimulation. FIG. 26C compares M-CSF secretion between COPD and healthy epithelia after […] (polyinosinic:polycytidylic acid) stimulation.
# It was next sought to determine cytokine production in response to TLR stimulation. Cytokines are molecules that are involved in inflammation and their generation can be modulated by TLR activation. After the well-differentiated (i.e. mucociliary) epithelium (normal and COPD-derived) was stimulated with lipopolysaccharides (LPS), a qPCR was performed on the cells to compare inflammatory response between COPD and healthy epithelia in the devices described herein. LPS is a bacterial derived molecule that stimulates TLR4. […] This is in line with clinical reports and other ex vivo observations that COPD patients are hyper-reactive inflammation-wise and produce more pro-inflammatory mediators. […] M-CSF is a cytokine that promotes survival and differentiations of a subset of immune cells, e.g., macrophages, in our bodies. This agrees with general observations that in the lungs of COPD patients there is generally an increased number of macrophages as compared to the number of macrophages in healthy individuals.
# [5] = test system: pulmonary microvascular endothelial cells; test: Cell adhesion molecule gene expression in endothelial cells after apical poly (I:C) challenge of co-cultured epithelium; details: apical poly (I:C) 10 μg/ml for 6 h, compared to cells without challenge
# Excerpt: FIGS. 27A-27C show establishment of a three-cell type microfluidic co-culture system comprising ciliated epithelium, endothelium and circulating leukocytes. (FIG. 27A) Left panel: a 3D cross-sectional diagram of one embodiment of the devices described herein used to re-create post-capillary venules (major sites of leukocyte recruitment and adhesion in vivo). Middle panel: a schematic diagram showing a 3-cell type co-culture of epithelium, endothelium and neutrophils (all primary cells). Right panel: vertical immunofluorescence cross-section of ciliated epithelium and endothelium bilayer on-device. Ciliated cells were labeled for β-tubulin IV and endothelial cells were stained with anti-CD31/PECAM-1 antibody. Nuclei were counterstained with DAPI. Scale bar, 20 μm. […] Following initial attachment the neutrophil crawled over apical surface of activated endothelium and then firmly adhered (times indicated in seconds). Neutrophils and endothelial cells had been live stained with CellTracker Red and Calcein AM, respectively. (FIG. 27C) Bar graphs showing E-selectin and VCAM1 mRNA levels in endothelia cells upon treatment of differentiated epithelial cells with or without poly (I:C). (3 devices per condition were used) […]
# [6] = test system: differentiated airway epithelial cells; test: Infection response of differentiated airway epithelial cells to TLR-3 ligand poly I:C in the device
# Method: FIGS. 11A-11D illustrate an exemplary method of evaluating an infection response of differentiated small airway epithelial cells and optionally immune cells in a device in accordance with an embodiment, and experimental data resulting therefrom. FIG. 11A is a schematic diagram illustrating an example method to evaluate an infection response in the device. Primary small airway epithelial cells were seeded on the membrane in the mesochannel (an “airway lumen” channel) for differentiation into ciliated and/or mucus-secreting cells following the differentiation method as described in FIG. 5A. Upon differentiation of the airway epithelial cells, another surface of the membrane (facing the microchannel, the “blood vessel” channel) could be seeded with or without endothelial cells. The differentiated cells in the mesochannel were then challenged with a toll-like receptor 3 (TLR-3) ligand poly I:C to induce inflammation. A fluid comprising immune cells (e.g., human monocytes) was introduced into the “blood vessel” channel, either with a static fluid or a flowing fluid, to determine effects of TLR-3-induced inflammation on cytokine/chemokine profiles of the differentiated cells and/or recruitment of immune cells (e.g., monocytes and/or neutrophils). […] FIG. 11C is a set of data showing quantification of monocytes attached to the TLR-3 activated differentiated epithelial cells in the device and the associated fluorescent images. FIG. 11D is a graph showing gene expression of differentiated epithelial cells after treatment with or without a TLR-3 ligand poly I:C.
# By way of example only, FIGS. 11A-11D illustrate the capability of using one embodiment of the device described herein to model a bacterial/viral infection. […] Cytokines or chemokines secreted into the fluid flowing in the mesochannel and/or microchannel can be measured by collecting from the outlet an aliquot of the fluid exiting the mesochannel and/or microchannel, which is then subjected to cytokine/chemokine expression analyses.
# [7] = drug treatment of IL-13 stimulated cultures
# [8] = IL-13 stimulation compared to cells without IL-13 stimulation
# [9] = healthy donor and COPD epithelial cells, poly (I:C) stimulation
compound,measurement,setting,value
Cl.O=C([C@@H](Cc1cccc(C(F)(F)F)c1)NS(=O)(=O)c1cc(F)c2c(c1)CCNC2)N1CCCC1 [PFI-2],neutrophil recruitment / adhesion to activated endothelium,[1],significantly lowered
same,secretion of GM-CSF,[2],significantly lowered
same,secretion of GROα,[2],significantly lowered
same,secretion of IL-6,[2],significantly lowered
same,secretion of IL-8,[2],significantly lowered
same,secretion of MCP-1,[2],significantly lowered
C[C@@H]1CCN(C(=O)CC#N)C[C@@H]1N(C)c1ncnc2[nH]ccc12 [Tofacitinib],G-CSF secretion,[3]; [7],decrease GM-CSF and G-CSF secretion
same,GM-CSF secretion,[3]; [7],decrease GM-CSF and G-CSF secretion
same,cilia beating frequency,[3]; [7],increase cilia beating frequency
same,number of goblet cells,[3]; [7],decrease the number of goblet cells
IL-13: a protein secreted by immune cells which is found in high quantities in lungs of asthmatics,cilia beating frequency,[3]; [8],lower cilia beating frequency
same,number of goblet cells,[3]; [8],higher number of goblet cells
same,secretion of G-CSF,[3]; [8],higher secretion
same,secretion of GM-CSF,[3]; [8],higher secretion
lipopolysaccharides [LPS],IL8 secretion,[4]; COPD epithelial cells,selectively induced
same,IL8 secretion,[4]; healthy epithelial cells,without increasing
polyinosinic:polycytidylic acid [poly (I:C)],M-CSF secretion,[4]; COPD epithelial cells,selectively up-regulated
same,expression of IP-10,[4]; [9],induced in both healthy donor and COPD epithelial cells
same,expression of RANTES,[4]; [9],induced in both healthy donor and COPD epithelial cells
same,M-CSF secretion,[4]; healthy epithelial cells,no significant change
same,E-selectin gene expression in endothelial cells,[5],significant up-regulation
same,VCAM-1 transcript levels in endothelial cells,[5],"higher, but not statistically significant"
same,release of chemokines (monocyte and neutrophil chemoattractants),[6]; TLR-3 activation of differentiated airway epithelial cells,stimulates release of chemokines
same,monocyte adhesion to differentiated epithelial cells,[6]; TLR-3 stimulation,enhances monocyte adhesion
same,epithelial cells' gene expression of IP-10,[6]; differentiated epithelial cells with or without poly I:C,significantly increases
